From US20250170116A1, “PHARMACEUTICAL COMPOSITION FOR PREVENTING AND/OR TREATING RENAL DISEASE” (priority 2022, published 2025)

Assays:
[1] = tested on: rats with puromycin aminonucleoside-induced kidney injury (focal segmental glomerulosclerosis / minimal change nephrotic syndrome model rats); assay: Test Example 1: action of Compound 011 in rats with puromycin aminonucleoside-induced kidney injury; format: in vivo, S.D. rats; conditions: for urinary protein levels lower compared with PAN group: Bradford method
Description: Eight-week-old S.D. rats (male, 8 rats) were intraperitoneally injected with 120 mg/kg of puromycin aminonucleoside (PAN) under anesthesia (day 0). PAN damages glomerular basement membrane cells (podocytes) and induces glomerular injury in rats. The PAN-treated rats were focal segmental glomerulosclerosis model rats and minimal change nephrotic syndrome model rats. The test compound (Compound 011) was mixed with food and administered (10 mg/kg/day) on or after the third day after the PAN injection. The rats were kept under a 12-hour light-dark cycle (lights on from 7:00 am to 7:00 pm, and lights off from 7:00 pm to 7:00 am the next morning), and food and water were provided ad libitum (PAN+011 group). Urine was collected on day 0, i.e., the day of PAN administration, and on days 3, 10, 20, and 27 after PAN administration. Urine was collected by placing the rats in metabolic cages for 17 hours (5:00 pm to 10:00 am the next morning). Separately, as controls, a group without PAN treatment and without test compound administration (control group, male, 3 animals), a group without PAN treatment but with test compound administration (control+011 group, male, 5 animals), and a group with PAN treatment but without test compound administration (PAN group, male, 9 animals) were also tested in the same manner. The urinary protein levels were measured by using the Bradford method. The serum albumin levels were measured by using an improved BCP (bromocresol purple) method. In the PAN group, the number of serum samples was 8 because one animal from which a serum sample was unable to be collected was excluded. On day 27 after PAN administration, the left kidney of each rat was removed, the size was visually observed, and the weight was measured. The number of left kidney samples of the control group was 3 because the left kidneys of three animals in this group were all removed and weighed. The number of left kidney samples of the control+011 group was 4 because the left kidneys of 4 of the 5 animals in this group were removed and weighed. The number of left kidney samples of the PAN group was 7 because the left kidneys of 7 of the 9 animals in this group were removed and weighed. The number of left kidney samples of the PAN+011 group was 7 because the left kidneys of 7 of the 8 animals in this group were removed and weighed.

[2] = tested on: rats with puromycin aminonucleoside-induced kidney injury (focal segmental glomerulosclerosis model rats); assay: Test Example 3: action of Compound 011 in PAN-treated rats with more severe symptoms for a longer period; format: in vivo, S.D. rats
Description: The action of Compound 011 on PAN-treated rats with more severe symptoms for a longer period of time than in Test Example 1 was studied. Eight-week-old S.D. rats (male, 8 rats) were intraperitoneally injected with 120 mg/kg of puromycin aminonucleoside (PAN) under anesthesia. Then, one month later, PAN was again injected intraperitoneally at 60 mg/kg. PAN creates focal segmental glomerulosclerosis model rats by disrupting glomerular basement membrane cells (podocytes) (Kim, J Mol Med, 2018, 96, 631-644). Furthermore, these model rats are known to develop chronic kidney damage accompanied by lymphocyte and macrophage infiltration (Ornellas, Sci Rep, 2019, 9:19604). The test compound (Compound 011) was mixed with food and administered (10 mg/kg/day) on or after the third day after the PAN injection. The rats were kept under a 12-hour light-dark cycle (lights on from 7:00 am to 7:00 pm, and lights off from 7:00 pm to 7:00 am the next morning), and food and water were provided ad libitum (PAN+011 group). Chronic proteinuria may sometimes occur after the first administration of PAN without a second administration of PAN. […] Two months after the first administration of PAN, the kidneys of the rats were removed, their sizes were visually observed, and their weights were measured. The number of kidney samples was 4 for the PAN group and was 6 for the PAN+011 group. Subsequently, the kidneys were fixed with 4% paraformaldehyde/PBS and then paraffin-embedded, and sections were prepared. The sections were treated with PAS (periodic acid-Schiff) staining, and PAS-stained positive areas (inflammatory cell areas) were evaluated. To extract RNA, a portion of tissue around the surface layer of the kidney was quickly frozen to −80° C. cDNA was produced from RNA extracted from the tissue by reverse transcriptase, and gene expression was evaluated by real-time PCR. TB Green Premix Ex Taq II (Takara Bio Inc.) was used as a reagent for the reaction, and a QuantStudio 5 system (Thermo Fisher) was used for the analysis.

[3] = PAN+011 group vs PAN group, two months after PAN
[4] = PAN+011 group, after 2 months, 10 mg/kg/day mixed with food, *p<0.03

O=C(O)c1cnc(N2CCN(c3noc4cccc(C(F)(F)F)c34)CC2)c(Cl)c1 [Compound 011, 5-Chloro-6-(4-(4-(trifluoromethyl)benzo[d]isoxazol-3-yl)piperazin-1-yl)nicotinic acid] was tested. Which “urinary protein levels lower compared with PAN group” value ([1]; PAN+011 group vs PAN group, day 10 after PAN, 10 mg/kg/day mixed with food) did it give?
The value was 38%.

And the serum albumin levels ([1]; PAN+011 group vs PAN group, day 27, improved BCP method, **p<0.01)?
The serum albumin levels was “almost no PAN-treatment-induced decrease in serum albumin levels”.

What about the “left kidney weight per rat body weight” value ([1]; PAN+011 group vs PAN group, day 27 after PAN) of the same molecule?
The value was “smaller increase in kidney weights”.

And the “urinary protein levels lower compared with PAN group” value ([1]; PAN+011 group vs PAN group, day 27 after PAN, 10 mg/kg/day mixed with food)?
The value was 48%.

And the “urinary protein levels, control+011 group vs control group” value ([1]; rats without PAN treatment, 10 mg/kg/day mixed with food)?
The value was “No difference”.

What about the “CD4 expression level in kidney tissue (quantitative PCR, relative to GAPDH)” value [2, 3] of the same molecule?
The value was “significantly decreased”.

What about the “CD86 expression level in kidney tissue (quantitative PCR, relative to GAPDH)” value [2, 3] of the same molecule?
Its value is “significantly decreased”.

And the “TGF-β expression level in kidney tissue (quantitative PCR, relative to GAPDH)” value [2, 3]?
The value was “significantly decreased”.

What about the “left kidney weight per rat body weight, decrease compared with PAN group” value [2, 4] of the same molecule?
The value was 29%.

And the “right kidney weight, decrease compared with PAN group” value [2, 4]?
Its value is 28%.

And the “suppression of formation of tertiary lymphoid tissue-like structures (PAS-stained positive area)” value ([2]; kidney sections two months after PAN, on average)?
Its value is no less than 50%.
